According to patent US11363816B2, “4-amino-6-(heterocyclic)picolinates and 6-amino-2-(heterocyclic)pyramidine-4-carboxylates and their use as herbicides” (Dow AgroSciences LLC, priority 2017, dated 2022):

Key:
Format in all cases: in vivo
[1] = tested on: CHEAL=Chenopodium album L. (common lambsquarters); test: Postemergence field trial, Hanley, Saskatchewan, Canada; details: 66DAAA
Procedure: (§1) Field trials were established in Canada (in Ellerslie, Alberta; Nisku, Alberta and Hanley, Saskatchewan) to evaluate the efficacy of Compound 5, Compound 6, and Compound 7. Trials were designed as randomized complete blocks with four replicates. Trials were established in spring wheat with natural weed population with plot sizes of 2-3 meters (m) by 8-10 m (width×length). The crops were grown using normal cultural practices for fertilization, seeding, and maintenance to ensure good growth of the crop.
(§2) All herbicide treatments were applied post-emergence with applications made to the crops at BBCH (Phenological development stages of a plant) 14 to 22 growth stage. Herbicides were applied with backpack or bicycle sprayers using carbon dioxide (CO2) as a propellant. The sprayers utilized flat fan air-induction spray nozzles calibrated to deliver a uniform spray pattern that provided thorough coverage of the foliage using a 100 L/ha spray volume. All treatments were applied with methylated seed oil (MSO) at 1.25% v/v. Phytotoxicity to the weeds was assessed visually at several intervals after application as percent overall control, compared to an untreated control plot. In general, four replicates were assessed for each treatment. All treatment results are an average of four replicates.
(§3) Compound 5, Compound 6 and Compound 7 were applied as emulsifiable concentrate (EC) formulations at 100 g ae/L EC, respectively.

[2] = tested on: KCHSC=Kochia scoparia (L.) Schrad. (Kochia); test: as above; details: 66DAAA
Procedure: as §1, §2, §3

[3] = tested on: CHEAL=Chenopodium album L. (common lambsquarters); test: Postemergent herbicidal activity in the greenhouse; details: 21-28 DAAA
Procedure: (§4) Seeds of the desired test plant species were planted in Sun Gro MetroMix® 306 planting mixture, which typically has a pH of 6.0 to 6.8 and an organic matter content of about 30 percent, in plastic pots with a surface area of 103.2 square centimeters (cm^2). When required to ensure good germination and healthy plants, a fungicide treatment and/or other chemical or physical treatment was applied. The plants were grown for 7-36 days (d) in a greenhouse with an approximate 14 hour (h) photoperiod which was maintained at about 18° C. during the day and 17° C. during the night. Nutrients and water were added on a regular basis and supplemental lighting was provided with overhead metal halide 1000-Watt lamps as necessary. The plants were employed for testing when they reached the second or third true leaf stage.
(§5) An aliquot of formulated Compound 5 (100 grams acid equivalent per liter (g ae/L); emusifiable concentrate (EC)), Compound 6 (100 g ae/L; EC) or Compound 7 (100 g ae/L; EC) was placed in a 25 mL glass vial and diluted in a volume of 1.25% (volume per volume (v/v)) aqueous Actirob B esterified rapeseed oil to obtain a stock solution. The concentrated stock solutions were diluted with an aqueous mixture of 1.25% v/v of aqueous Actirob B esterified rapeseed oil to provide the appropriate application rates. Compound requirements are based upon a 12 mL application volume at a rate of 187 liters per hectare (L/ha). Formulated compounds were applied to the plant material with an overhead Mandel track sprayer equipped with 8002E nozzles calibrated to deliver 187 L/ha over an application area of 0.503 square meters (m^2) at a spray height of 18 inches ([…]) above average plant canopy. Control plants were sprayed in the same manner with the solvent blank.
(§6) The treated plants and control plants were placed in a greenhouse as described above and watered by subirrigation to prevent washoff of the test compounds. After 20-22 d, the condition of the test plants as compared with that of the control plants was determined visually and scored on a scale of 0 to 100 percent where 0 corresponds to no injury and 100 corresponds to complete kill. […]
(§7) The values reported are means.

[4] = tested on: ANTAR=Anthemis arvensis (field chamomile); test: Postemergent herbicidal activity in the greenhouse; details: 21-28 DAAA
Procedure: as §4, §5, §6, §7

[5] = tested on: PAPRH=Papaver rhoeas L. (common poppy); test: Postemergent herbicidal activity in the greenhouse; details: 21-28 DAAA
Procedure: as §4, §5, §6, §7

[6] = tested on: POLCO=Polygonum convolvulus L. (wild buckwheat); test: Postemergent herbicidal activity in the greenhouse; details: 21-28 DAAA
Procedure: as §4, §5, §6, §7

[7] = tested on: SINAR=Sinapis arvensis L. (wild mustard); test: Postemergent herbicidal activity in the greenhouse; details: 21-28 DAAA
Procedure: as §4, §5, §6, §7

[8] = tested on: CIRAR=Cirsium arvense (L.) Scop. (Canada thistle); test: Postemergent herbicidal activity in the greenhouse; details: 21-28 DAAA
Procedure: as §4, §5, §6, §7

[9] = tested on: Res-PAPRH=Papaver rhoeas L. (common poppy) resistant to tribenuron and thifensulfuron (ALS) and 2,4-D; test: Postemergent herbicidal activity in the greenhouse; details: 21-28 DAAA
Procedure: as §4, §5, §6, §7

[10] = tested on: MATCH=Matricaria recutita L. (wild chamomile); test: Postemergent herbicidal activity in the greenhouse; details: 21-28 DAAA
Procedure: as §4, §5, §6, §7

[11] = tested on: VERSS=Veronica spp (speedwell); test: Postemergent herbicidal activity in the greenhouse; details: 21-28 DAAA
Procedure: as §4, §5, §6, §7

[12] = tested on: MATIN=Matricaria inodora (scentless mayweed); test: Postemergent herbicidal activity in the greenhouse; details: 21-28 DAAA
Procedure: as §4, §5, §6, §7

[13] = tested on: KCHSC=Kochia scoparia (L.) Schrad. (Kochia); test: Postemergent herbicidal activity in the greenhouse; details: 21-28 DAAA
Procedure: as §4, §5, §6, §7

[14] = tested on: CHEAL=Chenopodium album L. (common lambsquarters); test: Postemergence field trial, Ellerslie, Alberta, Canada
Procedure: as §1, §2, §3

[15] = tested on: STEME=Stellaria media (L.) Vill. (common chickweed); test: as above
Procedure: as §1, §2, §3

[16] = tested on: POLCO=Polygonum convolvulus L. (wild buckwheat); test: as above
Procedure: as §1, §2, §3

weeds = test: Herbicidal activity, overall conclusion from greenhouse and field results; details: summary of Tables 1 to 8
Description: These new chemical herbicides offer a broader spectrum of weed control, higher activity against weeds, and provide a way to address the management of weeds that developed resistance with respect to herbicides traditionally used to control them.

N#CCOC(=O)c1nc(-c2ccc3cc[nH]c3c2F)c(F)c(N)c1Cl [Compound 6, cyanomethyl 4-amino-3-chloro-5-fluoro-6-(7-fluoro-1H-indol-6-yl)picolinate]
Percent (%) Visual Control CHEAL ([1]; 10 g ae/ha): 95% | Percent (%) Visual Control CHEAL ([1]; 20 g ae/ha): 98.3% | Percent (%) Visual Control CHEAL ([1]; 40 g ae/ha): 99% | Percent (%) Visual Control KCHSC ([2]; 10 g ae/ha): 62% | Percent (%) Visual Control KCHSC ([2]; 20 g ae/ha): 81.5% | Percent (%) Visual Control KCHSC ([2]; 40 g ae/ha): 92.5% | Percent (%) Visual Control CHEAL ([3]; 10 g ae/ha): 100% | Percent (%) Visual Control CHEAL ([3]; 20 g ae/ha): 100% | Percent (%) Visual Control ANTAR ([4]; 10 g ae/ha): 100% | Percent (%) Visual Control ANTAR ([4]; 20 g ae/ha): 98.3% | Percent (%) Visual Control PAPRH ([5]; 10 g ae/ha): 100% | Percent (%) Visual Control PAPRH ([5]; 20 g ae/ha): 100% | Percent (%) Visual Control POLCO ([6]; 10 g ae/ha): 98.3% | Percent (%) Visual Control POLCO ([6]; 20 g ae/ha): 100% | Percent (%) Visual Control SINAR ([7]; 10 g ae/ha): 90% | Percent (%) Visual Control SINAR ([7]; 20 g ae/ha): 96% | Percent (%) Visual Control CIRAR ([8]; 10 g ae/ha): 50% | Percent (%) Visual Control CIRAR ([8]; 20 g ae/ha): 58.3% | Percent (%) Visual Control Res-PAPRH ([9]; 10 g ae/ha): 95% | Percent (%) Visual Control Res-PAPRH ([9]; 20 g ae/ha): 100% | Percent (%) Visual Control MATCH ([10]; 10 g ae/ha): 57% | Percent (%) Visual Control MATCH ([10]; 20 g ae/ha): 64% | Percent (%) Visual Control VERSS ([11]; 10 g ae/ha): 86.3% | Percent (%) Visual Control VERSS ([11]; 20 g ae/ha): 86.5% | Percent (%) Visual Control MATIN ([12]; 10 g ae/ha): 98.3% | Percent (%) Visual Control MATIN ([12]; 20 g ae/ha): 100% | Percent (%) Visual Control KCHSC ([13]; 10 g ae/ha): 73.3% | Percent (%) Visual Control KCHSC ([13]; 20 g ae/ha): 84.3% | Percent (%) Visual Control CHEAL 51DAAA ([14]; 10 g ae/ha): 96.8% | Percent (%) Visual Control CHEAL 51DAAA ([14]; 20 g ae/ha): 98% | Percent (%) Visual Control CHEAL 51DAAA ([14]; 40 g ae/ha): 98% | Percent (%) Visual Control STEME 51DAAA ([15]; 10 g ae/ha): 83.8% | Percent (%) Visual Control STEME 51DAAA ([15]; 20 g ae/ha): 75.8% | Percent (%) Visual Control STEME 51DAAA ([15]; 40 g ae/ha): 90% | Percent (%) Visual Control POLCO 51DAAA ([16]; 10 g ae/ha): 90.3% | Percent (%) Visual Control POLCO 51DAAA ([16]; 20 g ae/ha): 84.5% | Percent (%) Visual Control POLCO 51DAAA ([16]; 40 g ae/ha): 87% | herbicidal activity (overall conclusion) (weeds): superior herbicidal activity over Compound 7
